Source: patent US12077503B2, “Substituted cyclic amides and their use as herbicides” (FMC CORPORATION, priority 2015, dated 2024)

Columns and labels:
Assay type in all cases: in vivo
Kochia (Kochia scoparia) [1] = test: Test A preemergence; conditions: for Plant response rating, Kochia: 125 g ai/ha; for Kochia plant response rating (0 to 100 scale, 0 is no effect, 100 is complete control): 500 g ai/ha, visual injury approx. 10 d
Summary of the method: (§1)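 Treatment is preemergence as a directed soil spray after planting, or postemergence at the one- to two-leaf stage, with test chemical in a non-phytotoxic solvent mixture plus surfactant. Plants stay in the greenhouse about 10 d before visual injury scoring on a 0 to 100 scale versus untreated controls.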

[2] = test system: ragweed (common ragweed, Ambrosia elatior); test: Test A preemergence; conditions: for Plant response rating, Ragweed: 125 g ai/ha; for Ragweed plant response rating (0 to 100 scale, 0 is no effect, 100 is complete control): 500 g ai/ha, visual injury approx. 10 d
Summary of the method: as §1

[3] = test system: ryegrass, Italian (Italian ryegrass, Lolium multiflorum); test: Test A preemergence; conditions: for Plant response rating, Ryegrass, Italian: 125 g ai/ha; for Ryegrass, Italian plant response rating (0 to 100 scale, 0 is no effect, 100 is complete control): 500 g ai/ha, visual injury approx. 10 d
Summary of the method: as §1

[4] = test system: pigweed (Amaranthus retroflexus); test: Test A preemergence; conditions: for Plant response rating, Pigweed: 125 g ai/ha; for Pigweed plant response rating (0 to 100 scale, 0 is no effect, 100 is complete control): 500 g ai/ha, visual injury approx. 10 d
[5] = test system: giant foxtail (Setaria faberii); test: Test A preemergence; conditions: for Plant response rating, Foxtail, Giant: 125 g ai/ha; for Foxtail, Giant plant response rating (0 to 100 scale, 0 is no effect, 100 is complete control): 500 g ai/ha, visual injury approx. 10 d
Summary of the method: as §1

[6] = test system: barnyardgrass (Echinochloa crus-galli); test: Test A preemergence; conditions: for Plant response rating, Barnyardgrass: 125 g ai/ha; for Barnyardgrass plant response rating (0 to 100 scale, 0 is no effect, 100 is complete control): 500 g ai/ha, visual injury approx. 10 d
Summary of the method: as §1

Kochia (Kochia scoparia) [7] = test: Test A postemergence; conditions: for Kochia plant response rating: visual injury rating on 0 to 100 scale (0 no effect, 100 complete control), approx. 10 d
Summary of the method: as §1

[8] = test system: wheat (Triticum aestivum); test: Test A postemergence; conditions: for Wheat plant response rating: visual injury rating on 0 to 100 scale (0 no effect, 100 complete control), approx. 10 d
Summary of the method: as §1

[9] = test system: ragweed (common ragweed, Ambrosia elatior); test: Test A postemergence; conditions: for Ragweed plant response rating: visual injury rating on 0 to 100 scale (0 no effect, 100 complete control), approx. 10 d
Summary of the method: as §1

[10] = test system: ryegrass, Italian (Italian ryegrass, Lolium multiflorum); test: Test A postemergence; conditions: for Ryegrass, Italian plant response rating: visual injury rating on 0 to 100 scale (0 no effect, 100 complete control), approx. 10 d
Summary of the method: as §1

[11] = test system: blackgrass (Alopecurus myosuroides); test: Test A postemergence; conditions: for Blackgrass plant response rating: visual injury rating on 0 to 100 scale (0 no effect, 100 complete control), approx. 10 d
Summary of the method: as §1

[12] = test system: pigweed (Amaranthus retroflexus); test: Test A postemergence; conditions: for Pigweed plant response rating: visual injury rating on 0 to 100 scale (0 no effect, 100 complete control), approx. 10 d
Summary of the method: as §1

corn (Zea mays) = test: Test A postemergence; conditions: for Corn plant response rating: visual injury rating on 0 to 100 scale (0 no effect, 100 complete control), approx. 10 d
Summary of the method: as §1

[13] = test system: giant foxtail (Setaria faberii); test: Test A postemergence; conditions: for Foxtail, Giant plant response rating: visual injury rating on 0 to 100 scale (0 no effect, 100 complete control), approx. 10 d
Summary of the method: as §1

[14] = test system: barnyardgrass (Echinochloa crus-galli); test: Test A postemergence; conditions: for Barnyardgrass plant response rating: visual injury rating on 0 to 100 scale (0 no effect, 100 complete control), approx. 10 d
Summary of the method: as §1

[15] = test system: Galium (catchweed bedstraw, Galium aparine); test: Test A postemergence; conditions: for Galium plant response rating: visual injury rating on 0 to 100 scale (0 no effect, 100 complete control), approx. 10 d
Summary of the method: as §1

rice (Oryra sativa) = test: Test B flooded paddy test; conditions: Flood, 250 g ai/ha; 0 to 100 scale where 0 is no effect and 100 is complete control; 13 to 15 d
Summary of the method: (§2)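 Compound goes directly into floodwater once pots are flooded 3 cm above soil, targeting plants at two leaves; the water depth is then held for the test duration. Plants sit 13–15 d in a greenhouse and are rated visually, 100 denoting complete control.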

[16] = test system: ducksalad (Heteranthera limosa); test: Test B flooded paddy test; conditions: Flood, 250 g ai/ha; 0 to 100 scale where 0 is no effect and 100 is complete control; 13 to 15 d
Summary of the method: as §2

[17] = test system: sedge, umbrella (small-flower umbrella sedge, Cyperus difformis); test: Test B flooded paddy test; conditions: Flood, 250 g ai/ha; 0 to 100 scale where 0 is no effect and 100 is complete control; 13 to 15 d
Summary of the method: as §2

[18] = test system: barnyardgrass (Echinochloa crus-galli); test: Test B flooded paddy test; conditions: Flood, 250 g ai/ha; 0 to 100 scale where 0 is no effect and 100 is complete control; 13 to 15 d
Summary of the method: as §2

[19] = preemergence, 0 to 100 scale (0 no effect, 100 complete control)
[20] = 500 g ai/ha, postemergence, 0 to 100 scale, 0 no effect, 100 complete control
[21] = Preemergence, visual injury after approximately 10 d, 0 to 100 scale where 0 is no effect and 100 is complete control
[22] = 125 g ai/ha, postemergence, visual rating after approx. 10 d, 0 to 100 scale (0 no effect, 100 complete control)
[23] = Postemergence, 500 g ai/ha, 0 to 100 scale where 0 is no effect and 100 is complete control

Structure (SMILES): Cc1c(F)ccc(NC(=O)C2C(=O)NCC2c2cccc(OC(F)(F)C(F)F)c2)c1F (stereo not drawn) [Compound 460]
- Plant response rating, Kochia (Kochia (Kochia scoparia) [1]; [19]): 0
- Kochia plant response rating (0 to 100 scale, 0 is no effect, 100 is complete control) (Kochia (Kochia scoparia) [1]; Preemergence): 40
- Plant response rating, Ragweed [2, 19]: 0
- Ragweed plant response rating (0 to 100 scale, 0 is no effect, 100 is complete control) ([2]; Preemergence): 20
- Plant response rating, Ryegrass, Italian [3, 19]: 40
- Ryegrass, Italian plant response rating (0 to 100 scale, 0 is no effect, 100 is complete control) ([3]; Preemergence): 60
- Plant response rating, Pigweed [4, 19]: 30
- Pigweed plant response rating (0 to 100 scale, 0 is no effect, 100 is complete control) ([4]; Preemergence): 30
- Plant response rating, Foxtail, Giant [5, 19]: 90
- Foxtail, Giant plant response rating (0 to 100 scale, 0 is no effect, 100 is complete control) ([5]; Preemergence): 90
- Plant response rating, Barnyardgrass [6, 19]: 80
- Barnyardgrass plant response rating (0 to 100 scale, 0 is no effect, 100 is complete control) ([6]; Preemergence): 80
- Kochia plant response rating (Kochia (Kochia scoparia) [7]; 125 g ai/ha, postemergence): 0
- Plant response rating, Kochia (Kochia (Kochia scoparia) [7]; [20]): 30
- Wheat plant response rating ([8]; 125 g ai/ha, postemergence): 0
- Plant response rating, Wheat [8, 20]: 20
- Ragweed plant response rating ([9]; 125 g ai/ha, postemergence): 0
- Plant response rating, Ragweed [9, 20]: 0
- Ryegrass, Italian plant response rating ([10]; 125 g ai/ha, postemergence): 30
- Plant response rating, Ryegrass, Italian [10, 20]: 30
- Blackgrass plant response rating ([11]; 125 g ai/ha, postemergence): 20
- Plant response rating, Blackgrass [11, 20]: 40
- Pigweed plant response rating ([12]; 125 g ai/ha, postemergence): 20
- Plant response rating, Pigweed [12, 20]: 40
- Corn plant response rating (corn (Zea mays); 125 g ai/ha, postemergence): 20
- Plant response rating, Corn (corn (Zea mays); [20]): 40
- Foxtail, Giant plant response rating ([13]; 125 g ai/ha, postemergence): 90
- Plant response rating, Foxtail, Giant [13, 20]: 80
- Barnyardgrass plant response rating ([14]; 125 g ai/ha, postemergence): 60
- Plant response rating, Barnyardgrass [14, 20]: 70
- Galium plant response rating ([15]; 125 g ai/ha, postemergence): 50
- Plant response rating, Galium [15, 20]: 60
- Plant response rating, Rice (rice (Oryra sativa)): 0
- Plant response rating, Ducksalad [16]: 100
- Plant response rating, Sedge, Umbrella [17]: 0
- Plant response rating, Barnyardgrass [18]: 40

Structure (SMILES): O=C1NCC(c2cc(C(F)(F)F)ccc2F)C1C(=O)Nc1cccc(F)c1F (stereo not drawn) [Compound 594]
- Plant response rating, Kochia (Kochia (Kochia scoparia) [1]; [21]): 0
- Kochia plant response rating (0 to 100 scale, 0 is no effect, 100 is complete control) (Kochia (Kochia scoparia) [1]; Preemergence): 50
- Plant response rating, Ragweed [2, 21]: 0
- Ragweed plant response rating (0 to 100 scale, 0 is no effect, 100 is complete control) ([2]; Preemergence): 20
- Plant response rating, Ryegrass, Italian [3, 21]: 30
- Ryegrass, Italian plant response rating (0 to 100 scale, 0 is no effect, 100 is complete control) ([3]; Preemergence): 90
- Plant response rating, Pigweed [4, 21]: 0
- Pigweed plant response rating (0 to 100 scale, 0 is no effect, 100 is complete control) ([4]; Preemergence): 20
- Plant response rating, Foxtail, Giant [5, 21]: 90
- Foxtail, Giant plant response rating (0 to 100 scale, 0 is no effect, 100 is complete control) ([5]; Preemergence): 90
- Plant response rating, Barnyardgrass [6, 21]: 90
- Barnyardgrass plant response rating (0 to 100 scale, 0 is no effect, 100 is complete control) ([6]; Preemergence): 90
- Plant response rating, Kochia (Kochia (Kochia scoparia) [7]; [22]): 0
- Plant response rating, Kochia (Kochia (Kochia scoparia) [7]; [23]): 40
- Plant response rating, Wheat [8, 22]: 30
- Plant response rating, Wheat [8, 23]: 70
- Plant response rating, Ragweed [9, 22]: 0
- Plant response rating, Ragweed [9, 23]: 50
- Plant response rating, Ryegrass, Italian [10, 22]: 20
- Plant response rating, Ryegrass, Italian [10, 23]: 30
- Plant response rating, Blackgrass [11, 22]: 50
- Plant response rating, Blackgrass [11, 23]: 60
- Plant response rating, Pigweed [12, 22]: 0
- Plant response rating, Pigweed [12, 23]: 40
- Plant response rating, Corn (corn (Zea mays); [22]): 60
- Plant response rating, Corn (corn (Zea mays); [23]): 70
- Plant response rating, Foxtail, Giant [13, 22]: 90
- Plant response rating, Foxtail, Giant [13, 23]: 90
- Plant response rating, Barnyardgrass [14, 22]: 90
- Plant response rating, Barnyardgrass [14, 23]: 90
- Plant response rating, Galium [15, 22]: 0
- Plant response rating, Galium [15, 23]: 20
- Plant response rating, Rice (rice (Oryra sativa)): 35
- Plant response rating, Ducksalad [16]: 90
- Plant response rating, Sedge, Umbrella [17]: 0
- Plant response rating, Barnyardgrass [18]: 70

Structure (SMILES): CN1CC(c2ccc(C(F)(F)F)c(F)c2)C(C(=O)Nc2ccc(F)cc2F)C1=O (stereo not drawn) [Compound 398]
- Plant response rating, Kochia (Kochia (Kochia scoparia) [1]; [19]): 70
- Kochia plant response rating (0 to 100 scale, 0 is no effect, 100 is complete control) (Kochia (Kochia scoparia) [1]; Preemergence): 90
- Plant response rating, Ragweed [2, 19]: 20
- Ragweed plant response rating (0 to 100 scale, 0 is no effect, 100 is complete control) ([2]; Preemergence): 30
- Plant response rating, Ryegrass, Italian [3, 19]: 30
- Ryegrass, Italian plant response rating (0 to 100 scale, 0 is no effect, 100 is complete control) ([3]; Preemergence): 70
- Plant response rating, Pigweed [4, 19]: 70
- Pigweed plant response rating (0 to 100 scale, 0 is no effect, 100 is complete control) ([4]; Preemergence): 90
- Plant response rating, Foxtail, Giant [5, 19]: 90
- Foxtail, Giant plant response rating (0 to 100 scale, 0 is no effect, 100 is complete control) ([5]; Preemergence): 90
- Plant response rating, Barnyardgrass [6, 19]: 90
- Barnyardgrass plant response rating (0 to 100 scale, 0 is no effect, 100 is complete control) ([6]; Preemergence): 90
- Kochia plant response rating (Kochia (Kochia scoparia) [7]; 125 g ai/ha, postemergence): 60
- Plant response rating, Kochia (Kochia (Kochia scoparia) [7]; [20]): 80
- Wheat plant response rating ([8]; 125 g ai/ha, postemergence): 20
- Plant response rating, Wheat [8, 20]: 70
- Ragweed plant response rating ([9]; 125 g ai/ha, postemergence): 0
- Plant response rating, Ragweed [9, 20]: 0
- Ryegrass, Italian plant response rating ([10]; 125 g ai/ha, postemergence): 20
- Plant response rating, Ryegrass, Italian [10, 20]: 50
- Blackgrass plant response rating ([11]; 125 g ai/ha, postemergence): 40
- Plant response rating, Blackgrass [11, 20]: 60
- Pigweed plant response rating ([12]; 125 g ai/ha, postemergence): 50
- Plant response rating, Pigweed [12, 20]: 60
- Corn plant response rating (corn (Zea mays); 125 g ai/ha, postemergence): 60
- Plant response rating, Corn (corn (Zea mays); [20]): 70
- Foxtail, Giant plant response rating ([13]; 125 g ai/ha, postemergence): 80
- Plant response rating, Foxtail, Giant [13, 20]: 90
- Barnyardgrass plant response rating ([14]; 125 g ai/ha, postemergence): 90
- Plant response rating, Barnyardgrass [14, 20]: 90
- Galium plant response rating ([15]; 125 g ai/ha, postemergence): 50
- Plant response rating, Galium [15, 20]: 60
- Plant response rating, Rice (rice (Oryra sativa)): 20
- Plant response rating, Ducksalad [16]: 80
- Plant response rating, Sedge, Umbrella [17]: 0
- Plant response rating, Barnyardgrass [18]: 60
